Measured values published in patent publication US10351594B2, “Process for preparing compounds having triple activities of thrombolysis, antithrombosis, and radical scavenging” (Shanghai Lumosa Therapeutics Co., Ltd., priority 2013, dated 2019).
Marks after values point to notes of the source that are not given here.

Experiments:
[1] = test system: thrombus (rat arteriovenous bypass thrombolysis model); test: Thrombolytic activity via intravenous administration, rat arteriovenous bypass thrombolysis model; type: in vivo, male SD rats; conditions: n = 10
Procedure: 200-220 g male SD rats were anesthetized with 20% urethane solution (6 mL/kg, ip). Anesthetized rats were fixed in a supine position, and the right common carotid artery was separated, clamped at the proximal end with an arterial clip, and penetrated with a suture at the proximal and distal ends, respectively. The suture at the distal end is clipped tightly by a hemostatic clamp at the skin/fur. Cannulation was performed at the distal end, the arterial clamp was loosened, and about 1 ml arterial blood was discharged into a 1 mL EP vial. 0.1 mL rat arterial blood was injected into a vertically fixed glass tube (15 mm in length, with an inner diameter of 2.5 mm and an outer diameter of 5.0 mm, sealed with a rubber stopper at the bottom), into which was immediately inserted a thrombus immobilization screw made of stainless steel. […] 40 min after the blood coagulated, the rubber stopper at the bottom of the glass tube was removed, the stem of the thrombus immobilization screw was fixed by forceps, and the thrombus-wrapped thrombus immobilization screw was carefully taken out from the glass tube and precisely weighted.
A bypass cannula was composed of 3 segments. The middle segment was a polyethylene tube having a length of 60 mm and an inner diameter of 3.5 mm. The segments on both ends were similar polyethylene tubes having a length of 100 mm, an inner diameter of 1 mm and an outer diameter of 2 mm, one end of which was pulled to form a tip, with an outer diameter of 1.0 mm (used in inserting into the rat carotid artery or vein), the other end of which was sheathed by a polyethylene tube having a length of 7 mm and an outer diameter of 3.5 mm (thickened, used in inserting into the polyethylene tube of the middle segment). The inner wall of the 3-segment cannula was entirely silylated. The thrombus-wrapped thrombus immobilization screw was placed into the polyethylene tube of the middle segment, and both ends of the tube sheath the thickened ends of two polyethylene tubes. The cannula was filled with a heparin solution in normal saline (50 IU/kg) through the tip end by using an injector and was ready for use.
The left external jugular vein of the rat was separated and penetrated with a suture at the proximal and distal ends respectively, and the distal end was ligated. An incision was carefully made on the exposed left external jugular vein, and the tip of the bypass cannula prepared as described above was inserted into the proximal end of the incision in the left external jugular vein, away from the stem of the thrombus immobilization screw in the middle segment of the bypass cannula (which accommodated the accurately weighed thrombus immobilization screw). A precise amount of heparin in saline (50 IU/kg) was injected through the tip at the other end by using an injector. At this moment, without removing the injector from the polyethylene tube, the tube between the injector and the polyethylene tube was clamped with a hemostatic clamp. The blood flow was stopped by clamping the proximal end of the right common carotid artery with an arterial clip, and an incision was cut carefully across the common carotid artery near the clip. The injector was pulled out of the polyethylene tube through the tip, and the tip of the polyethylene tube was then inserted into the proximal end of the artery incision. Both ends of the bypass cannula were fixed to the artery or vein with #4 sutures.
A scalp needle was used to pass saline solution, a urokinase in saline solution or varied concentrations of the compounds in saline solution through the middle section of the bypass cannula (which accommodated the accurately weighed thrombus immobilization screw) to a position at the proximal vein and away from the thrombus immobilization screw. The artery clip was then removed to allow blood to flow from the artery to the vein through the bypass cannula. A rat arteriovenous bypass thrombolysis model was thus established. […]

stroke rats = test: Therapeutic effect in stroke rats (microthrombus injected into the brain, treated at once): Zealonga score and TTC infarction volume; type: in vivo, SD male rats; conditions: for Neural function scores: Zealonga method, 24 hours after awake, n = 9; for Percentage of infarction volume: cerebral infarction, TTC, n = 7
Procedure: SD male rats (280-300 g) were randomly divided to UK positive control group at a dose of 20000 IU/kg, blank control group with normal saline solution, compound control group with PAK at a dose of 5 μmol/kg, and compound 5Ak group at a dose of 1 μmol/kg (high), 0.1 μmol/kg (medium), and 0.01 μmol/kg (low). A 10% chloral hydrate solution (400 mg/kg) was injected intraperitoneally into rats for anesthesia. […] The 10 μl blood drawn was placed in a 1 mL EP vial and kept at RT for 30 min to allow the coagulation of blood and then transferred into a −20° C. refrigerator for 1 hour to allow the formation of solid coagulation. 1 hour later, the blood clots were taken out, 1 mL normal saline was added therein, and then the blood clots were broken into relatively uniform microthrombus by a steel spatula. The microthrombus suspension was then transferred into a 1 mL injector for use. […] The common jugular vein was separated, and then injected with UK at the dose of 20000 IU/kg, normal saline solution, or compound 5Ak at the dose of 1 μmol/kg. The vein was ligated. 3 drops of penicillin was dropped on the wound. The wound was sewed, and animals were waited for awake.
24 hours after the rats were awake, the degree of damage in neural function was evaluated by the Zealonga method. […] The evaluation results were statistically analyzed and subjected to t-test.
After the rats were awake for 24 hours and assessed for their degree of damage in neural function by Zealonga method, they were anesthetized with urethane followed by immediate decapitation and removal of the brain. Brain tissues were kept in a −20° C. refrigerator for 2 hours, and coronal sections of about 2 mm were successively sliced from the prefrontal end for a total of 5 sections and then placed into a 2% TTC solution to incubate without light at 37° C. for 30 min. The color change in brain sections was observed: normal brain tissues were stained red by TTC, while ischemic brain tissues appeared in white. Photographs were taken by using a digital camera and processed with image statistics software, and the volume of infarction in brain tissues and the area of normal brain tissues in the coronal sections were calculated. The ratio of the cerebral infarction volume of each group was statistically calculated and subject to t-test.

[2] = test system: formation of thrombus (rat arteriovenous bypass); test: Antithrombotic activity via intravenous administration, rat arteriovenous bypass cannula with thread; type: in vivo, male SD rats; conditions: n = 10
Excerpt: A cannula was composed of 3 segments. The middle segment has a length of 80 mm and an inner diameter of 3.5 mm. […] The pre-weighed, 60 mm in length thread was placed in the middle segment of the polyethylene tube. Both ends of the wider tube sheathed the un-narrowed ends of two polyethylene tubes respectively (0.5 mm of the thread was restrained by one of the segment to fix the thread). The cannula was filled with a heparin solution in normal saline (50 IU/kg) through the tip end by using an injector and was ready for use. 200-220 g male SD rats were anesthetized with 20% urethane solution (6 mL/kg, ip). Anesthetized rats were fixed in a supine position, and the left external jugular vein was separated and penetrated with a suture at the proximal and distal ends respectively, and the distal end was ligated. An incision was carefully made on the exposed left external jugular vein, and the tip end without thread-restraining of the bypass cannula prepared as described above was inserted into the proximal end of the open incision in the left external jugular vein. A precise amount of heparin in normal saline (50 IU/kg) was injected through the tip at the other end by using an injector. Then, the injector was replaced, and precise amount of drug was injected by the same way. At this moment, without removing the injector from the ethylene tube, the right common carotid artery was separated, and the proximal end was clipped by an artery clip. The right common carotid artery was penetrated with a suture at the proximal and distal ends respectively, and the distal end was ligated. An incision was carefully cut across the right common carotid artery near the artery clip. The injector was pulled out of the polyethylene tube through the tip, and the tip of the polyethylene tube was then inserted into the proximal end of the artery incision. Both ends of the bypass cannula were fixed to the artery or vein with #4 sutures. The artery clip was then removed to allow blood to flow from the artery to the vein through the bypass cannula. A rat arteriovenous bypass thrombolysis model was thus established. The process was timed from the beginning of circulation, the thread attached with thrombus was taken out from the bypass cannula after 15 minutes and accurately weighed. The difference in the mass of the thread before and after was determined as the wet weight of the thrombus, which was statistically analyzed and used to evaluate the in vivo antithrombotic activities of the compounds. The wet weight of the thrombus was expressed as average value and standard deviation (x±SD). The drug administration method is intravenous injection. The blank control was normal saline solution, and the dose was 1 mL/kg. The positive control was aspirin, and the dose was 9 mg/kg. The dose of compounds 5Aa-p of the present invention was 0.1 nmol/kg. The method was the same as in example 3. The drug administration method is intravenous injection. The blank control was normal saline solution, and the dose was 3 mL/kg. The positive control was aspirin, and the dose was 9 mg/kg.

[3] = Table 1, control groups 6, PAK, 6 + PAK, dose not given

Compound: CC1(C)N[C@H](C(=O)N[C@@H](CCCCN)C(=O)O)Cc2cc(O)c(O)cc21 [Compound 6, 3S-6,7-dihydroxy-1,1-dimethyl-1,2,3,4-tetrahydro-isoquinoline-3-acyl-Lys, reference compound]
- Weight reduction in thrombus [1, 3]: 13.87 ± 3.07^a mg

Compound: Pro-Ala-Lys [PAK, reference compound]
- Neural function scores (stroke rats; PAK 5 μmol/kg): 2.20 ± 1.60
- Percentage of infarction volume (stroke rats; PAK 5 μmol/kg): 18.36 ± 7.38%
- Weight reduction in thrombus [1, 3]: 14.17 ± 1.84^a mg

Compound: urokinase [reference compound]
- Neural function scores (stroke rats; urokinase 20000 IU/kg): 1.30 ± 0.95^a
- Percentage of infarction volume (stroke rats; urokinase 20000 IU/kg): 4.60 ± 2.09%
- Weight reduction in thrombus ([1]; Table 1, urokinase 20000 U/kg (1.68 mg/kg) i.v.): 18.95 ± 2.73^a mg
- Weight reduction in thrombus ([1]; Table 2, Urokinase 20000 U/kg i.v.): 25.61 ± 3.87 mg

Compound: CC(=O)Oc1ccccc1C(=O)O [Aspirin, aspirin, reference compound]
- wet weight of thrombus ([2]; Table 3, Aspirin 9 mg/kg): 46.95 ± 5.21^a mg
- wet weight of thrombus ([2]; Table 4, Aspirin 9 mg/kg): 45.62 ± 2.60 mg
